Measurements taken from publication PMC11125357, “Assessment of Anticancer Properties of Argemone mexicana L. and Berberine: A Comparative Study” (Plants, 2024).
“And” between values parts separate entries of the source, which are not always exact repeats. Identical values can stand only once. “Also recorded” adds a separate entry of the source. Marks after values point to notes of the source that are not given here.

How the values were obtained:
[1] = tested on: VERO (monkey kidney epithelial) non-tumoral cells; assay: MTT cell viability assay in VERO cells; format: cell-based, African green monkey; settings: Primates, 72 h of incubation, mean ± SD
Description: (§1) The HEP-G2 cancer cell line and the normal VERO cell line were cultured in DMEM supplemented with 10% FBS, 2% NaHCO3, and HEPES. All tests performed with these cells were carried out in 96-well flat-bottom plastic microplates (Corning® Labware and Equipment, Oneonta, NY, USA) due to the adherent nature of these cells. L5178Y-R cells and PBMC were maintained in RPMI-1640 culture medium supplemented with 10% FBS and 1% antibiotic/antimycotic solution. All the tests performed with these cells were carried out in 96-well curved-bottom plastic microplates (Corning®) because these cells are non-adherent.
(§2) Prior to the application of the treatments, the cells were incubated at 37 °C in a humidified incubator (Sanyo MCO-19AIC CO2 Incubator, Sanyo Electric Co., Ltd., Gunma-ken, Japan) with 5% CO2 for 24 h for adaptation. The cell viability was determined by MTT assay; MTT color intensity was directly associated with the number of living cells after 72 h of incubation. Mitochondrial enzymes, specifically succinate dehydrogenase, reduce MTT tetrazolium salt to form formazan; this reaction produces a purple–blue product that can be measured using spectrophotometry since the in vitro cell viability can be tested using the MTT colorimetric assay. Therefore, we decided to perform an MTT assay to correlate mitochondrial activity with viability. […]

[2] = tested on: HEP-G2 (human hepatocellular carcinoma) cells; assay: MTT cell viability assay in HEP-G2 cells; format: cell-based; settings: HepG2, 72 h of incubation, mean ± SD
Description: as §1
(§3) Prior to the application of the treatments, the cells were incubated at 37 °C in a humidified incubator (Sanyo MCO-19AIC CO2 Incubator, Sanyo Electric Co., Ltd., Gunma-ken, Japan) with 5% CO2 for 24 h for adaptation. The cell viability was determined by MTT assay; MTT color intensity was directly associated with the number of living cells after 72 h of incubation. Mitochondrial enzymes, specifically succinate dehydrogenase, reduce MTT tetrazolium salt to form formazan; this reaction produces a purple–blue product that can be measured using spectrophotometry since the in vitro cell viability can be tested using the MTT colorimetric assay.

[3] = tested on: PBMC (human peripheral blood mononuclear) cells; assay: MTT cell viability assay in PBMC; format: cell-based; settings: 72 h of incubation, mean ± SD
Description: as §1, §2

[4] = tested on: murine lymphoma (L5178Y-R) cells; assay: MTT cell viability assay in L5178Y-R cells; format: cell-based; settings: Mus musculus, L5178, 72 h of incubation, mean ± SD, read-out: IC50 (µg/mL) in Cells, L5178 Y-R
Description: as §1, §3

Hemolytic test = format: cell-based; settings: human red blood cells (erythrocytes), pH 7.2; concentration causing 50% hemolysis of human red blood cells, mean ± SD
Description: The hemolytic activity was assessed using the hemolysis test. Treatments evaluated were prepared in PBS (pH 7.2 ± 0.2) in concentrations ranging from 10, 100, 200, 400, 600, 800, 1000, and 2000 µg/mL; the percent (%) of hemolysis was determined by measuring the Abs at 540 nm for each treatment.

[5] = tested on: human erythrocytes, AAPH-induced hemolysis; assay: Anti-hemolytic test by the AAPH assay; format: cell-based; settings: Erythrocyte; protection against AAPH radical (150 mM) in human erythrocytes, mean ± SD
Description: The AAPH inhibition test, as previously reported, was used to determine the anti-hemolytic activity. Hemolysis was induced by the AAPH radical (150 mM, prepared in PBS) as a positive control. The concentrations of the treatments were the same as in the hemolysis assay plus the AAPH.

Artemia salina nauplii = assay: Lethality in Artemia salina; format: in vivo; settings: 24 h of exposure, mean ± SD
Description: Artificial seawater was prepared using 20 g of sea salt and 6 mg of brewer’s yeast dissolved in 500 mL of distilled H2O (pH 7.8). Prior to the assay, the artificial seawater was conditioned by supplying air with an aquarium pump for 24 h. For the hatching of A. salina nauplii, a rectangular glass container (17 × 14 × 7 cm) was adapted, with a dark section where the cysts were incubated and an illuminated area that allows only hatched nauplii to be obtained by means of phototropism. After an incubation period of 48 h under room temperature conditions of 25 ± 2.0 °C (aeration and constant light), the test was carried out using 96-well transparent plastic microplates with a concave bottom (Corning®), in which 20 nauplii and different concentrations of the treatments (10, 100, 200, 400, 600, 800, 1000, and 2000 µg/mL) were deposited in a final volume of 200 µL per well [46]. […] Counting of live and dead larvae in each well of the microplate was performed with the use of a stereoscope microscope. […] A. salina nauplii viability was determined by Formula (6) as follows:(6) A. salina Viability %= Survival Treatment Count/ Survival Control Count×100

DPPH scavenging test = settings: 50% decrease of DPPH, 517 nm, mean ± SD
Description: (§4) The antioxidant activity was determined by the DPPH, ABTS radical scavenging, and FRAP (Ferric Reducing Antioxidant Power) methods. In the DPPH and ABTS assays, Vitamin C served as the positive control. In all treatment evaluations, the concentrations ranged from 15.63, 31.25, 62.50, […], 250, 500, and 1000 µg/mL.
The antioxidant activity was assessed using the DPPH radical assay, where the antioxidant activity (free radical scavenging capacity) was quantified as IC50 in µg/mL. […] The DPPH radical scavenging assay was conducted in a 96-well flat-bottom plastic microplate (Corning®). The percentage inhibition of DPPH at 517 nm was determined using a UV/VIS spectrophotometer and calculated using Formula (7) as follows:(7) DPPH scavenging %=Abs517 Control−Abs517 Sample/Abs517 Control×100

ABTS scavenging test = settings: 50% decrease of ABTS radical, 734 nm, mean ± SD
Description: as §4
The antioxidant activity was determined using the ABTS radical scavenging method, where the antioxidant activity (free radical scavenging capacity) was quantified as IC50 in µg/mL. […] The ABTS radical scavenging assay was conducted in 96-well plastic microplates (Corning®), and the percentage inhibition of ABTS at 734 nm was calculated using Formula (8) as follows:(8) ABTS scavenging %=Abs734nm Control−Abs734 Sample/Abs734nm Control×100

[6] = tested on: murine macrophages (J774A.1 cell line); assay: Nitric oxide production (Griess reagent); format: cell-based
Description: The macrophage cultures were incubated in triplicate in 25 cm^2 tissue culture flasks (Corning Glass Works, Corning®, Oneonta, NY, USA) in a total volume of 7 mL of RPMI-1640 culture medium supplemented with 10% FBS and 1% antibiotic/antimycotic solution and maintained at 37 °C in 5% CO2. A concentration of 200 ng/mL of E. coli O26:B6 LPS served as an inflammatory-inducing agent to stimulate NO production. NO production was assessed by measuring nitrite accumulation in the supernatant using Griess reagent. A standard curve was generated using NaNO2 (1 M) to interpret the test results.

Row | Compound | IC50 [1] | IC50 [2] | IC50 [3] | IC50 [4] | IC50 (Hemolytic test) | IC50 [5] | A. salina LD50 (Artemia salina nauplii) | DPPH IC50 (DPPH scavenging test) | ABTS IC50 (ABTS scavenging test) | activity in response to NO production ([6]; 0.98 to 500 µg/mL) | NO production in macrophages compared to LPS ([6]; 0.5 h, 0.00–500 µg/mL) | NO production in macrophages compared to LPS ([6]; 4 h, 0.00–31.25 µg/mL) | NO production in macrophages compared to LPS ([6]; 4 h, 62.50–250 µg/mL) | NO production in macrophages compared to LPS ([6]; 4 h, 500–1000 µg/mL) | NO production in macrophages compared to LPS ([6]; 24 h, 0.00–500 µg/mL) | NO production in macrophages compared to LPS ([6]; BER at 1000 µg/mL, 0.5, 4 and 24 h)
1 | COc1ccc2cc3[n+](cc2c1OC)CCc1cc2c(cc1-3)OCO2 [BER, 16,17-dimethoxy-5,7-dioxa-13-azoniapentacyclo [11.8.0.0^2,10.0^4,8.0^15,20]henicosa-1(13),2,4(8),9,14,16,18,20-octaene] | 908 ± 31.9 µg/mL | 56.9 ± 9.45 µg/mL | 27.1 ± 7.16 µg/mL | < 5 µg/mL | 713 ± 38 µg/mL | 36.9 ± 5.49 µg/mL | 178.00 µg/mL and 178.00 ± 29.70 ^b,** µg/mL | 44.80 ± 1.22 ^a,* µg/mL | 40.29 ± 9.02 ^a,* µg/mL | immunomodulatory activity | no significant increase in NO production | no increase in NO production | behaved in the same way as LPS | increase in NO production greater than that of LPS | no increase in ON production | increased NO production; also recorded: significantly greater effect on NO production compared to LPS
2 | O=C1O[C@H]([C@@H](O)CO)C(O)=C1O [Vitamin C, ascorbic acid] | – | – | – | – | – | – | – | 68.90 ± 3.11 ^b µg/mL | 81.76 ± 6.30 ^b µg/mL | – | – | – | – | – | – | –
